Read-outs that look alike come from different tables or passages of the source.
Key:
[1] = test system: murine DNFB-induced DTH model; assay: DNFB-induced delayed-type-hypersensitivity (DTH) model, ear swelling; type: in vivo, mouse
Experimental: Ear-swelling (swelling of the skin on the pinnae) was the endpoint of this model. This study was carried out over 6 to 7 days, with events occurring as described below.
Mice (female BALB/c; n=10/group) were immunized with 0.5% of DNFB dissolved in acetone/olive oil. Sensitization was done with the contact allergen, wherein 20 μL of the solution was placed on the footpads of the animals.
[…] The mice were challenged at day 5. 10 μL of a 0.8% DNFB solution was topically applied externally on the right ear of the animal. As control, the left ear was treated the same way with vehicle alone (acetone/olive oil).
Animals were anesthetized with isoflurane and the ear swelling was measured within 24 to 48 hours after challenge using a micrometer. The micrometer calipers were closed around the top portion of the each external ear until resistance from the ear was felt. […]

rats with CIA = assay: Rat collagen-induced arthritis (CIA): paw swelling and knee histopathology; type: in vivo
Experimental: Female Lewis rats were anesthetized with 3-5% isoflurane and arthritis was induced by intradermal injection of 0.3 mL (100 μL at three different sites) of an emulsion […] 1.5 mg/mL of type II bovine collagen, CII (Elastin Products Inc., Cat# CM276), in incomplete Freund's adjuvant (IFA) at the base of the tail on day 0 and 6. Control rats were injected with an equal amount of IFA only.
The volume of both hind paws were measured using a water displacement plethysmometer (Ugo Basile, Biological Research Apparatus, Italy), and the onset of arthritis was indicated by increased paw volume, which appeared approximately on day 11 post injection. Both paw volumes and body weights were measured throughout the study every 2-3 days. Nineteen to twenty-one days after CII injection, the rats were euthanized with CO2. Blood was collected by cardiac puncture and serum was saved.
were measured under two different treatment regimens. In the first (prophylactic) treatment regimen, Compound X was administered i.v., twice daily, at 0.3 mg/kg from day 0 to day 6 or 10. For ex vivo studies, animals were euthanized on day 6 after the last injection and their inguinal lymph nodes were harvested. […] For ex vivo studies, animals were euthanized on day 16 and inguinal lymph nodes were harvested. Venous blood samples were collected during the course of treatment. For CD3 activation, 96-well flat bottom plates were coated with anti-CD3 mAb (eBioscience, clone G4.18) 1 μg/mL. Plates were stored overnight at 4° C., and were subsequently rinsed with PBS once before use. Bovine Type II collagen for tissue culture was purchased from Chondrex (Cat# 2022) and was reconstituted according to the manufacturer's instructions. All data were processed and analyzed by t-test using GraphPad Prism software.
After the animals were euthanized, both hind paws and knees were removed, hind paws were weighed, and the paws and knees were placed in formalin. Following 1-2 days in fixative and 4-5 days in decalcifier, the ankle joints were cut in half longitudinally, and the knees were cut in half in the frontal plane. The joints were then processed, embedded, sectioned and stained with toluidine blue. Collagen arthritic ankles and knees were given scores of 0-5 for inflammation, pannus formation and bone resorption according to the following criteria:
1 Minimal infiltration of inflammatory cells in periarticular tissue 2 Mild infiltration 3 Moderate infiltration with moderate edema 4 Marked infiltration with marked edema 5 Severe infiltration with severe edema […]

[2] = test system: CD3-stimulated mouse splenocytes; assay: Ex vivo anti-CD3 stimulated cytokine production of mouse spleen cells after in vivo dosing; settings: for inhibition at 0.03 mg/kg: Mus musculus, Splenocyte, iv, single i.v. 0.03 mg/kg, 30 min before harvest, vs vehicle
Experimental: BALB/c female mice (n=5), 6-8 weeks old, were given either i.v. injection of Compound X or vehicle once a day for 5 days or a single i.v. injection of Compound X or vehicle. Thirty minutes after the last injection, spleens were removed under sterile conditions, and a single cell suspension was made by pressing through a nylon strainer (BD Falcon Cat# 352340). Cells were spun at 1500 rpm for 10 minutes, and the liquid was aspirated. RBC was lysed by adding 3 mL of ACK solution (Lonza Cat# 10-458E) for 5 minutes. The tube was filled with RPMI media and spun. Cells were resuspended in RPMI/10% FCS. To plates pre-coated with anti-CD3 (per the procedure described below) were added 4×10^5 cells per well. Supernatants were harvested after 18 hours of culture. Cytokine levels were measured by Bioplex (Biorad), according to manufacturer's instructions.
For CD3 stimulation, anti-mouse CD3 mAb (BD Pharmingen clone 145-2C11) was used at 0.2 μg/mL in PBS to coat flat bottom 96-well plate at 4° C. overnight. Plates were rinsed twice with PBS before use.
To measure this effect, mice were given daily i.v. injections of 0.3 mg/kg of Compound X for five days. Spleen cells were then harvested and stimulated with anti-CD3 antibody in vitro overnight.
Mice were given a single i.v. injection of 0.03 mg/kg Compound X 30 minutes before spleen cells were harvested. T cells were isolated by magnetic beads, and the purity of T cells was >95% as measured by flow cytometry. Spleen cells or purified T cells were stimulated with 0.2 μg/mL anti-CD3 overnight, and cytokine levels were measured by Bioplex.
The ability of in vivo treatment with Compound X to inhibit anti-CD3 stimulated cytokine production was measured by treating mice (n=5) with a single i.v. injection of 0.03 mg/kg of Compound X thirty minutes before spleens were harvested. Spleen cells were stimulated with anti-CD3 mAb overnight, and cytokine levels were measured by Bioplex. The resulting percent inhibition of cytokine production by total spleen cells as compared with vehicle treated animals is shown in Table 2. These studies indicate that Compound X, when dosed to naïve animals, inhibited ex vivo CD3-stimulated cytokine production in splenocytes by approximately 35-60%.

[3] = therapeutic, twice daily i.v. 0.3 mg/kg, days 8 to 19

## CC[C@@H](O)/C=C/C=C\C[C@@H](O)/C=C/C=C/C=C\[C@@H](O)CCCC(=O)O [Compound X]
[1]; 30 μg/kg i.v., 15 minutes before challenge, ear thickness 24 hours after challenge
  maximal efficacy, inhibition of tissue (ear) swelling: 38%
[1]; dexamethasone 60 minutes prior to DNFB challenge
  inhibition of the DTH response, Compound X versus dexamethasone: comparable levels of inhibition
[1]; i.p. 0.03 mg/kg once daily day 0 to day 5, or single injection on day 5
  DNFB-DTH response, two regimens: comparable and significant reduction
[1]; i.v., 15 minutes before challenge
  tissue swelling, dose dependence: dose-dependently reduced
Rats with CIA; prophylactic, twice daily i.v. 0.3 mg/kg, days 0 to 10
  paw swelling (as measured by ankle diameter): significant reduction
Rats with CIA; therapeutic dosing
  bone resorption and joint damage: protected
Rats with CIA; [3]
  knee histopathology scores: inflammation, pannus, cartilage damage, bone resorption: significant reduction
  mean ankle joint volume: significant reduction
[2]; anti-CD3 overnight, read-out: % Inhibition of IL-6 production by total spleen cells
  inhibition at 0.03 mg/kg: 55.2%
[2]; anti-CD3 overnight, read-out: % Inhibition of IL-13 production by total spleen cells
  inhibition at 0.03 mg/kg: 68.3%
[2]; anti-CD3 overnight, read-out: % Inhibition of INFγ production by total spleen cells
  inhibition at 0.03 mg/kg: 78.5%
[2]; anti-CD3 overnight, read-out: % Inhibition of Il-2 production by total spleen cells
  inhibition at 0.03 mg/kg: 62.6%
[2]; anti-CD3 overnight, read-out: % Inhibition of Il-4 production by total spleen cells
  inhibition at 0.03 mg/kg: 64.9%
[2]; anti-CD3 overnight, read-out: % Inhibition of MIP1α production by total spleen cells
  inhibition at 0.03 mg/kg: 42.7%
[2]; anti-CD3 overnight, read-out: % Inhibition of MIP1β production by total spleen cells
  inhibition at 0.03 mg/kg: 46.1%
[2]; anti-CD3 overnight, read-out: % Inhibition of RANTES production by total spleen cells
  inhibition at 0.03 mg/kg: 37.2%
[2]; anti-CD3 overnight, read-out: % Inhibition of TNFα production by total spleen cells
  inhibition at 0.03 mg/kg: 50.7%
[2]; daily i.v. 0.3 mg/kg for five days, anti-CD3 overnight
  cytokine release of CD3-stimulated mouse splenocytes: inhibits
[2]; dosed to naïve animals, summary of studies
  inhibition of ex vivo CD3-stimulated cytokine production in splenocytes: 35-60%
[2]; single i.v. 0.03 mg/kg 30 minutes before harvest, 0.2 μg/mL anti-CD3 overnight
  CD3-induced cytokine release, spleen cells or purified T cells: reduction

— patent US20090137527A1, “Compositions and methods for modulating immune function” (Resolvyx Pharmaceuticals, Inc., priority 2007, published 2009)
